Measured values published in patent publication US20220073536A1 (Rigel Pharmaceuticals, Inc., priority 2003, published 2022).

The compounds below were run on cultured human mast cells (CHMC) (assay: CHMC low cell density IgE activation: tryptase assay). Conditions: Homo sapiens, Mast cell, low cell density CHMC, IgE activation, tryptase release, 3 pt; read-out: LD Tryptase, CHMC, IgE, 3 pt.
Assay type: cell-based
Method in brief: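 Low-density CHMC, 1000-1500 cells/well in MT; 1 hr 37 °C; anti-IgE challenge 30 min 37 °C; supernatant tryptase via fluorogenic substrate, 30 min RT.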

IC50 [µM]	Compound
> 10	COc1cc(Nc2nc(Nc3cc(C)c(Cl)c(C)c3)ncc2F)cc(C(F)(F)F)c1 [Compound 339]
< 10	COc1ccc(Nc2ncc(F)c(Nc3ccc4c(c3)NC(=O)C(C)(C)S4(=O)=O)n2)cc1F [Compound 297]

Same assay, conditions: Homo sapiens, Mast cell, low cell density CHMC, IgE activation, tryptase release, 8 pt; read-out: LD Tryptase, CHMC, IgE, 8 pt

IC50 [µM]	Compound
< 10	NCCCn1ncc2cc(Nc3ncc(F)c(Nc4ccc(Cl)c(Cl)c4)n3)ccc21 [Compound 824, N2-[1-(3-Aminopropyl)indazol-5-yl]-N4-(3,4-dichlorophenyl)-5-fluoro-2,4-pyrimidinediamine]
< 10	COc1ccc(Nc2nc(Nc3ccc4c(cnn4CCCN)c3)ncc2F)cc1Cl [Compound 823, N2-[1-(3-Aminopropyl)indazol-5-yl]-N4-(3-chloro-4-methoxyphenyl)-5-fluoro-2,4-pyrimidinediamine]
< 10	CC1(C)Oc2ccc(Nc3nc(Nc4ccc5c(cnn5CCCN)c4)ncc3F)cc2NC1=O [Compound 825, N2-[1-(3-Aminopropyl)indazol-5-yl]-N4-(2,2-dimethyl-3-oxo-4H-benz[1,4]oxazin-6-yl)-5-fluoro-2,4-pyrimidinediamine]

More lines, now with the values behind:

Compound	IC50 [µM]
COc1ccc(Nc2ncc(F)c(Nc3ccc4c(c3)NC(=O)C(C)(C)S4(=O)=O)n2)cc1F [Compound 297]	< 10
CC1(C)Sc2ccc(Nc3nc(Nc4cccc(O)c4)ncc3F)cc2NC1=O [Compound 293]	< 10
Cc1cc(C)cc(Nc2ncc(F)c(Nc3ccc4c(c3)NC(=O)[C@@H](C)O4)n2)c1 [Compound 204, (R)-N2-(3,5-Dimethylphenyl)-5-fluoro-N4-(2-methyl-3-oxo-2H,4H-benz[1,4]oxazin-6-yl)-2,4-pyrimidinediamine]	< 10

Same assay, conditions: Homo sapiens, Mast cell, low cell density CHMC, IgE activation, tryptase, 3 pt; read-out: LD Tryptase, CHMC, IgE, 3 pt

IC50 [µM]	Compound
< 10	CN1CCN(c2ccc(Nc3ncc(F)c(NC4CCCCC4)n3)cc2C(F)(F)F)CC1 [Compound 1209]
< 10	CC(C)Nc1nc(Nc2ccc(N3CCN(C)CC3)c(Cl)c2)ncc1F [Compound 1205]
< 10	COc1cc(Nc2nc(Nc3ccc4cnn(C5CCCCC5)c4c3)ncc2F)ccc1F [Compound 749, N2-(1-Cyclohexylindazol-6-yl)-5-fluoro-N4-(4-fluoro-3-methoxyphenyl)-2,4-pyrimidinediamine]
< 10	CCOC(=O)N1CCC(Nc2nc(Nc3ccc(N4CCN(C)CC4)c(C(F)(F)F)c3)ncc2F)CC1 [Compound 1229]
< 10	Cc1n[nH]c2cc(Nc3ncc(F)c(Nc4ccc5c(c4)NC(=O)C(C)(C)O5)n3)ccc12 [Compound 751, N4-(2,2-Dimethyl-3-oxo-4H-benz[1,4]oxazin-6-yl)-5-fluoro-N2-(3-methylindazol-6-yl)-2,4-pyrimidinediamine]

The next lines start with the compound.

Compound	IC50 [µM]
Cc1cc(C)cc(Nc2ncc(F)c(Nc3cc(C)cc(C)c3)n2)c1 [Compound 341, N2,N4-Bis (3,5-dimethylphenyl)-5-fluoro-2,4-pyrimidinediamine]	< 10
COc1cc(Nc2nc(Nc3ccc4cnn(CC5CCCCC5)c4c3)ncc2F)ccc1F [Compound 725, N2-[1-(Cyclohexylmethyl)indazol-6-yl)-5-fluoro-N4-(4-fluoro-3-methoxyphenyl)-2,4-pyrimidinediamine]	< 10
COc1cc(Nc2nc(Nc3cc(C)c(Cl)c(C)c3)ncc2F)cc(OC)c1 [Compound 349]	< 10
Fc1cnc(Nc2ccc3c(cnn3CC3CCCCC3)c2)nc1Nc1ccc(Cl)c(Cl)c1 [Compound 719, N2-[1-(Cyclohexylmethyl)indazol-5-yl]-N4-(3,4-dichlorophenyl)-5-fluoro-2,4-pyrimidinediamine]	< 10

Same assay, conditions: Homo sapiens, Mast cell, low cell density CHMC, IgE activation, tryptase, 8 pt; read-out: LD Tryptase, CHMC, IgE, 8 pt

IC50 [µM]	Compound
< 10	CC1(C)Oc2ccc(Nc3nc(Nc4ccc5cnn(C6CCCCC6)c5c4)ncc3F)cc2NC1=O [Compound 748, N2-(1-Cyclohexylindazol-6-yl)-N4-(2,2-dimethyl-3-oxo-4H-benz[1,4]oxazin-6-yl)-5-fluoro-2,4-pyrimidinediamine]
< 10	CCCCn1ncc2cc(Nc3ncc(F)c(Nc4ccc5c(c4)NC(=O)C(C)(C)O5)n3)ccc21 [Compound 712, N2-(1-n-Butylindazol-5-yl)-N4-(2,2-dimethyl-3-oxo-4H-benz[1,4]oxazin-6-yl)-5-fluoro-2,4-pyrimidinediamine]
< 10	Cc1n[nH]c2cc(Nc3ncc(F)c(Nc4ccc5c(c4)NC(=O)C(C)(C)O5)n3)ccc12 [Compound 751, N4-(2,2-Dimethyl-3-oxo-4H-benz[1,4]oxazin-6-yl)-5-fluoro-N2-(3-methylindazol-6-yl)-2,4-pyrimidinediamine]

Same assay, conditions: Homo sapiens, Mast cell, low cell density, IgE activation, 3 pt; read-out: LD Tryptase, CHMC, IgE, 3 pt

IC50 [µM]	Compound
< 10	CCn1c(C)nc2cc(Nc3ncc(F)c(Nc4ccc(OC)c(Cl)c4)n3)ccc21 [Compound 933]
< 10	Oc1cccc(Nc2nc(Nc3cccc(-c4ncon4)c3)ncc2F)c1 [Compound 522]
< 10	CCn1c(C)nc2cc(Nc3ncc(F)c(Nc4ccc5c(c4)NC(=O)C(C)(C)O5)n3)ccc21 [Compound 934]
> 10	COc1ccc(Nc2ncc(F)c(Nc3ccc(OC)c(Cl)n3)n2)cc1Cl [Compound 878, N2-(3-Chloro-4-methoxyphenyl)-N4-(2-chloro-3-methoxypyrid-6-yl)-5-fluoro-2,4-pyrimidinediamine]

Same assay, conditions: Homo sapiens, Mast cell, low cell density, IgE activation, 8 pt; read-out: LD Tryptase, CHMC, IgE, 8 pt

IC50 [µM]	Compound
< 10	Cc1cc(C)cc(Nc2nc(Nc3cc(C)c(O)c(Cl)c3)ncc2F)c1 [Compound 554]

Same assay, conditions: low cell density CHMC, IgE activation, tryptase release, 8 pt; read-out: LD Tryptase, CHMC, IgE, 8 pt

IC50 [µM]	Compound
< 10	COc1ccc(Nc2nc(Nc3ccc4c(cnn4CCCN4C(=O)c5ccccc5C4=O)c3)ncc2F)cc1Cl [Compound 815, N4-(3-Chloro-4-methoxyphenyl)-5-fluoro-N2-[1-[3-(N-phthalimidopropyl)]indazol-5-yl]-2,4-pyrimidinediamine]
< 10	COc1ccc(Nc2ncc(F)c(Nc3ccc4c(c3)NC(=O)C(C)(C)S4)n2)cc1Cl [Compound 289]

Same assay, conditions: low cell density CHMC, IgE activation, tryptase, 3 pt; read-out: LD Tryptase, CHMC, IgE, 3 pt

IC50 [µM]	Compound
< 10	CCc1ccc(S(=O)(=O)O)cc1.COc1cc(Nc2ncc(F)c(Nc3ccc4c(n3)NC(=O)C(C)(C)O4)n2)cc(OC)c1OC [Compound 679, N4-(2,2-Dimethyl-3-oxo-4H-5-pyrid[1,4]oxazin-6-yl)-5-fluoro-N2-(3,4,5-trimethoxyphenyl)-2,4-pyrimidinediamine p-Ethylbenzenesulfonic Acid Salt]
< 10	CCOC(=O)N1CCN(c2cccc(Nc3ncc(F)c(Nc4ccc5c(n4)NCCO5)n3)c2)CC1 [Compound 1138, N4-(3,4-Dihydro-2H,4H-5-pyrid[1,4]oxazin-6-yl)-N2-[3-(4-ethoxycarbonylpiperazino)phenyl]-5-fluoro-2,4-pyrimidinediamine]

Same assay, conditions: low cell density CHMC, IgE activation, tryptase, 8 pt; read-out: LD Tryptase, CHMC, IgE, 8 pt

IC50 [µM]	Compound
< 10	CCc1ccc(S(=O)(=O)O)cc1.COc1cc(Nc2ncc(F)c(Nc3ccc4c(n3)NC(=O)C(C)(C)O4)n2)cc(OC)c1OC [Compound 679, N4-(2,2-Dimethyl-3-oxo-4H-5-pyrid[1,4]oxazin-6-yl)-5-fluoro-N2-(3,4,5-trimethoxyphenyl)-2,4-pyrimidinediamine p-Ethylbenzenesulfonic Acid Salt]
< 10	N2-[3,5-Bis (hydroxymethylene)phenyl]-N4- (3,4-ethylenedioxyphenyl)-5-fluoro-2,4-pyrimidinediamine [Compound 342]
< 10	CCOC(=O)N1CCN(c2cccc(Nc3ncc(F)c(Nc4ccc5c(n4)NCCO5)n3)c2)CC1 [Compound 1138, N4-(3,4-Dihydro-2H,4H-5-pyrid[1,4]oxazin-6-yl)-N2-[3-(4-ethoxycarbonylpiperazino)phenyl]-5-fluoro-2,4-pyrimidinediamine]

Same assay, conditions: low cell density, IgE activation, 3 pt; read-out: LD Tryptase, CHMC, IgE, 3 pt

IC50 [µM]	Compound
< 10	CNC(=O)COc1cccc(Nc2ncc(F)c(Nc3ccc(OC)c(Cl)n3)n2)c1 [Compound 880, N4-(2-Chloro-3-methoxypyrid-6-yl)-5-fluoro-N2-[3-(N-methylamino)carbonylmethyleneoxyphenyl]-2,4-pyrimidinediamine]
< 10	Cc1nc2cc(Nc3ncc(F)c(Nc4ccc5c(n4)NC(=O)C(C)(C)O5)n3)ccc2n1CCCO [Compound 951, N4-(2,2-Dimethyl-3-oxo-4H-5-pyrido[1,4]oxazin-6-yl)-5-fluoro-N2-[1-(3-hydroxypropyl)-2-methylbenzimidazol-5-yl]-2,4-pyrimidinediamine]

Same assay, conditions: low cell density, IgE activation, 8 pt; read-out: LD Tryptase, CHMC, IgE, 8 pt

IC50 [µM]	Compound
< 10	CNC(=O)COc1cccc(Nc2ncc(F)c(Nc3ccc(OC)c(Cl)n3)n2)c1 [Compound 880, N4-(2-Chloro-3-methoxypyrid-6-yl)-5-fluoro-N2-[3-(N-methylamino)carbonylmethyleneoxyphenyl]-2,4-pyrimidinediamine]
< 10	Cc1nc2cc(Nc3ncc(F)c(Nc4ccc5c(n4)NC(=O)C(C)(C)O5)n3)ccc2n1CCCO [Compound 951, N4-(2,2-Dimethyl-3-oxo-4H-5-pyrido[1,4]oxazin-6-yl)-5-fluoro-N2-[1-(3-hydroxypropyl)-2-methylbenzimidazol-5-yl]-2,4-pyrimidinediamine]
< 10	N4- (2,2-Dimethyl-3-oxo-4H-5-pyrid[1,4]oxazin-6-yl)-5-fluoro-[1-(2-hydroxymethyl)-2-trifluoromethylbenzimidazol-5-yl]-2,4-pyrimidinediamine [Compound 924]
< 10	Cn1c(CN2CCOCC2)nc2cc(Nc3ncc(F)c(Nc4ccc5c(n4)NC(=O)C(C)(C)O5)n3)ccc21 [Compound 958, N4-(2,2-Dimethyl-3-oxo-4H-5-pyrido[1,4]oxazin-6-yl)-5-fluoro-N2-[1-methyl-2-(4-morpholinomethyl)benzimidazol-5-yl]-2,4-pyrimidinediamine]
